These results are taken from patent US20200290950A1, “ALKAMIDE COMPOUNDS AND USES THEREOF” (NORTH CAROLINA STATE UNIVERSITY, priority 2017, published 2020).

Test [1] relates to β-hexosaminidase. The experiment in a line: β-hexosaminidase enzyme activity in RBL-2H3 cell lysates with p-NAG. The test is classed as biochemical, rat. The settings on record: 1 hr at 37° C. The protocol:
FIG. 8. […] RBL-2H3 cells were lysed with 0.1% Triton X-100 to release β-hex from the cells. Lysates were incubated for 1 hr at 37° C. with the substrate, p-NAG, in combination with the indicated concentrations of A15 or vehicle only. The absorbance at 405 nm was measured using a microplate spectrophotometer. Results shown are the means±SEM of triplicate wells from a representative experiment out of 2 independent experiments. Statistical analysis was performed using a one-way ANOVA with Dunnett's post-hoc test.

For test [2], the target named is T1, TRPA1 (Mus musculus, UniProt Q8BLA8).
T1 construct: The receptors TRPA1 and TRPV1 are expressed on neurons; from tissue; host or cells: primary dorsal root ganglion neurons from mice
T1 sequence (Q8BLA8 whole entry): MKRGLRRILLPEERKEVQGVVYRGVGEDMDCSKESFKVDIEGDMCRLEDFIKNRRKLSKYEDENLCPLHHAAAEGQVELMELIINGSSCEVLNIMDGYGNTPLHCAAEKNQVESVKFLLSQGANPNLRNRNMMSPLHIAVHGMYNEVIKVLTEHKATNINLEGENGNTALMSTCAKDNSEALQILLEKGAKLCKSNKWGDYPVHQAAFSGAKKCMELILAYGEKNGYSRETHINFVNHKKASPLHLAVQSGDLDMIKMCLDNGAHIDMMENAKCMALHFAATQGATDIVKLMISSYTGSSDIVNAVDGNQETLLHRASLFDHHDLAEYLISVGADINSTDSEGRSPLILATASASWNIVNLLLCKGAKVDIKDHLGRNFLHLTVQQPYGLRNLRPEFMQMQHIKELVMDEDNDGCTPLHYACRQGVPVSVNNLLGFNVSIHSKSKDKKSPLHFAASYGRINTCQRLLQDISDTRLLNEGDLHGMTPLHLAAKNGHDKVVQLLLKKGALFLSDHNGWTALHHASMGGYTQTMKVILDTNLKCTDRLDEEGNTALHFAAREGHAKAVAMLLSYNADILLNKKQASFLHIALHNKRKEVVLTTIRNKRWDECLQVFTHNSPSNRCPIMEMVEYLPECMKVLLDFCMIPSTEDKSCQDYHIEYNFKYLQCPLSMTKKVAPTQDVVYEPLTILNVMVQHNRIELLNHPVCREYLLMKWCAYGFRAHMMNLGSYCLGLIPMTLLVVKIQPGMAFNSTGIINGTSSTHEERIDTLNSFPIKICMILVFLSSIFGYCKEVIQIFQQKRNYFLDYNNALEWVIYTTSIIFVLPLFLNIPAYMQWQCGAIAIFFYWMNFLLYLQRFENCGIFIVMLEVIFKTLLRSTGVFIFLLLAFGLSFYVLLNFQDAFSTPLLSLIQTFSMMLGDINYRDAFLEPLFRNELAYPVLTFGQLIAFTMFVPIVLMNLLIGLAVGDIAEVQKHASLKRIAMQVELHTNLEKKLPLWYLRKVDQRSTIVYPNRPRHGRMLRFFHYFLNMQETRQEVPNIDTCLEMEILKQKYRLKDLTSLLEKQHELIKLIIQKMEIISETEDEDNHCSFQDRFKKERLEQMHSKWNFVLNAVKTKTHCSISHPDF
The experiment in a line: Calcium response of DRG neurons to mustard (allyl isothiocyanate). It counts as cell-based. The settings on record: cultured DRG neurons, fluorescence microscopy. The source says: FIG. 11. Calcium response from DRG sensory neurons to alkamide of transient receptors. Mustard a TRPA1-receptor agonist activates DRG neurons in gray (A) and capsaicin, an agonist for TRPV1-receptors in the DRG neurons in red (B). Ligand A15 inhibits both TRPA1 and TRPV1 receptors activation in orange; however, 85Y a synthetic ligand only reduces the inhibition of TRPA1 but not TRPV1 receptors in blue. Total number of neurons (n)=135-145; p≤0.05.
Several different model systems were utilized for these experiments. In one model, dorsal root ganglia were obtained from mice and the neurons cultured in vitro. The neurons were then stimulated in the presence/absence of A15 and YM8-85 and the calcium responses monitored by fluorescence microscopy. In the second model, the alkamides were applied to mouse skin in mineral oil. The reactions of these mice to heat, cold, and tactile stimulation was then compared with mice that had not received treatment with A15. […] Alkamides were applied to sensitized animals and then ear swelling and bouts of scratching were monitored.
In vitro DRG neuron responses. […] Neurons were stimulated with mustard (allyl isothiocyanate) (A) an agonist for the receptor TRPA-1 or capsaicin (B) an agonist for the receptor TRPV-1 and calcium responses were measured in individual neurons by fluorescence microscopy. […]

The target of test [3] is cannabinoid type 2 receptor (CB2) (Homo sapiens, UniProt P34972). The settings on record: Raduner et al., 2006; cited from earlier work.
cannabinoid type 2 receptor (CB2), sequence (P34972 whole entry, species assumed): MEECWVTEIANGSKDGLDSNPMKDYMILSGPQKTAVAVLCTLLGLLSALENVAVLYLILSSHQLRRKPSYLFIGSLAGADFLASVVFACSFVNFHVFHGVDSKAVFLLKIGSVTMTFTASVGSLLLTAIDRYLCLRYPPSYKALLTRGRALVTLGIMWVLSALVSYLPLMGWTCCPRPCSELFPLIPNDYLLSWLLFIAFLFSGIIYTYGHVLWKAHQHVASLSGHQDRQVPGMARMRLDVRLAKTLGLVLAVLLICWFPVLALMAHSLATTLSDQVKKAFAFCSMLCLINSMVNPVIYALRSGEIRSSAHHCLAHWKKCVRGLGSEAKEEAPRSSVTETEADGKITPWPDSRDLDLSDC
In test [4] the test system is BMMCs. The experiment in a line: Fluo-4 calcium assay, BMMCs. It counts as cell-based, mouse. On the procedure: FIGS. 3A-3H. A15 inhibits calcium influx in RBL-2H3 cells and BMMCs. RBL-2H3 cells (FIGS. 3A-3D) and BMMCs (FIGS. 3E-3H) were plated and incubated overnight prior to treatments. For DNP-BSA treatments, overnight incubation also included 1 μg/mL IgE anti-DNP. Prior to stimulation, cells were washed and loaded with the fluorescent, calcium-sensitive dye fluo-4 AM using the Fluo-4 AM Direct™ Calcium Assay Kit and fluorescence was measured on a microplate reader. Calcium influx was triggered in all experiments using either 1 μM A23187 or 50 ng/mL DNP-BSA, as indicated. Bar graphs represent the means±SEM of the Δ in RFU's at 1 min post-A23187- or DNP-BSA-stimulation from 3 independent experiments (FIGS. 3B, 3D, 3F, 3H). Statistical analysis was performed using a one-way ANOVA with Dunnett's post-hoc test, *p<0.05, **p<0.01, ***p<0.001.
(§1) RBL-2H3, BMMC, RAW 264.7, or Jurkat cells were plated in clear-bottom, black, 96-well plates (BioExpress, Kaysville, Utah) and incubated overnight with media only or media containing IgE anti-DNP. Cells were loaded with the calcium-sensitive dye fluo-4 AM using the Fluo-4 Direct™ Calcium Assay Kit (Thermo Fisher Scientific) according to the manufacturer's instructions by incubating at 37° C. for 30 min followed by 30 min at room temperature. Prior to stimulation, baseline fluorescent readings were measured from triplicate wells in 5 s intervals for 1 min using a Synergy HT microplate reader with 485/20 nm excitation and 528/20 nm emission filters. Cells were then treated with either 1 μM A23187 or 50 ng/mL DNP-BSA prepared in calcium- and magnesium-containing or calcium- and magnesium-free HBSS with 20 mM HEPES, and fluorescence was measured in 10 s intervals for 2 min. The final concentration of ethanol was 0.25% in these assays. The average baseline fluorescence of each well was subtracted from the stimulated fluorescent values to calculate the change (Δ) in RFU's and graphed as shown.

Test [5] has as its system Jurkat T cells. The experiment in a line: Fluo-4 calcium assay, Jurkat cells. The test is classed as cell-based. The settings on record: 1 μM A23187, 100 μM A15, at 1 min. The protocol: (§2) FIGS. 4A-4D. A15 inhibits A23187-stimulated calcium influx in RAW 264.7 and Jurkat cells. RAW 264.7 (FIG. 4A-4B) or Jurkat cells (FIG. 4C-4D) were loaded with fluo-4 AM using the Fluo-4 AM Direct™ Calcium Assay Kit and fluorescence was measured on a microplate reader. Cells were stimulated with 1 μM A23187 in combination with vehicle only or 100 μM A15. Bar graphs represent the means±SEM of the Δ in RFU's at 1 min post-A23187 stimulation from 3 independent experiments. Statistical analysis was performed using an unpaired Student's t-test, *p<0.05.
as §1, with “Cells were loaded with the calcium-sensitive dye fluo-4 AM using the Fluo-4 Direct™ Calcium Assay Kit (Thermo Fisher Scientific) according to the manufacturer's instructions by incubating at 37° C. for 30 min followed by 30 min at room temperature.” left out, “The final concentration of ethanol was 0.25% in these assays.” left out

The test system of test [6] is RAW 264.7 macrophage-like cells. The experiment in a line: Fluo-4 calcium assay, RAW 264.7 cells. It counts as cell-based, mouse. As to conditions: 1 μM A23187, 100 μM A15, at 1 min. The protocol: as §2
as §1, with “Cells were loaded with the calcium-sensitive dye fluo-4 AM using the Fluo-4 Direct™ Calcium Assay Kit (Thermo Fisher Scientific) according to the manufacturer's instructions by incubating at 37° C. for 30 min followed by 30 min at room temperature.” left out, “The final concentration of ethanol was 0.25% in these assays.” left out

For `CCCCCCC/C=C/C=C/C(=O)NCC(C)C` [A15, (2E,4E)-N-Isobutyldodeca-2,4-dienamide], the “enzymatic activity of β-hex (production of chromogenic product from p-NAG)” value in test [1] was “not inhibited”. The “DRG neuron calcium response to mustard (TRPA1 agonist)” value in test [2] was “inhibit”. Further, the “binding to CB2” value in test [3] is given as “shown to bind”. Also, the calcium response result is “blocked the calcium response” in test [4] (BMMCs treated with A23187); “blocked the calcium response” in test [4] (BMMCs treated with IgE anti-DNP and DNP-BSA). Besides, the “calcium response to compound itself” value in test [4] (BMMCs, A15 alone) is on record as “did not cause a calcium response”. In addition, the “suppression of calcium influx” value in test [5] stood at 43.6%; in test [6] it was 60.2%.
